Measured values from PubChem BioAssay (NCI).
Values joined by “and” are separate entries in the source; they are usually repeats but may differ in a detail not shown here. Equal values may be shown once.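 Following 48 hours of exposure in 96-well plates, responses at five concentrations were used to interpolate endpoints linearly. GI50: concentration for 50% inhibition of growth. TGI is the concentration that stops growth completely.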

Experiments:
Assay in all cases: NCI tumour cell line growth inhibition, 48 h
[1] = system: HL-60(TB) leukemia
[2] = system: DU-145 prostate
[3] = system: SW-620 colon
[4] = system: HCT-116 colon
[5] = system: OVCAR-5 ovarian
[6] = system: M14 melanoma
[7] = system: RXF 393 renal
[8] = system: OVCAR-3 ovarian
[9] = system: MDA-MB-435
[10] = system: K-562 leukemia

| Compound | GI50 [1] | TGI [1] | GI50 [2] | TGI [2] | GI50 [3] | TGI [3] | GI50 [4] | TGI [4] | GI50 [5] | TGI [5] | GI50 [6] | TGI [6] | GI50 [7] | TGI [7] | GI50 [8] | TGI [8] | GI50 [9] | TGI [9] | GI50 [10] | TGI [10] |
| --- | --- | --- | --- | --- | --- | --- | --- | --- | --- | --- | --- | --- | --- | --- | --- | --- | --- | --- | --- | --- |
| C/C(Cc1ccc(Cl)cc1)=C(/c1ccc(Cl)cc1)c1ccc(OCCN(C)C)cc1 | 3.89 µM | 10 µM | 4.74 µM | 9.44 µM | 1.67 µM | 6.1 µM | 3.03 µM | 8.74 µM | 4.79 µM | 9.3 µM | 5.19 µM | 10.8 µM | 3.45 µM | 7.54 µM | 4.53 µM | 9.2 µM | 4.52 µM | 8.81 µM | 0.981 µM | 5.83 µM |
| C=C(C)[C@@H]1CC[C@]2(COC3CCCCO3)CC[C@]3(C)[C@H](CC[C@@H]4[C@@]5(C)C=C(C=O)C(=O)C(C)(C)[C@@H]5CC[C@]43C)[C@@H]12 (some centres not stated) | 1.56 µM | 5.37 µM | 1.57 µM | 2.92 µM | 1.13 µM | 2.87 µM | 1.31 µM | 2.59 µM | 1.79 µM | 4.21 µM | 1.34 µM | 3.01 µM | 1.24 µM | 2.73 µM | 1.14 µM | 2.49 µM | 1.05 µM | 2.32 µM | 1.64 µM | 5.98 µM |
| C[C@H]1C(Oc2ccc(O)cc2)OC2OC3(C)CCC4[C@H](C)CCC1C24OO3 (some centres not stated) | 0.57 µM | 24.4 µM | 20.1 µM | 43.2 µM | 8.74 µM | 43.2 µM | 8.56 µM | 25 µM | 10.4 µM | 25.9 µM | 16.1 µM | 34.3 µM | 19.1 µM | 41.3 µM | 6.12 µM | 32.8 µM | 12.4 µM | 46.3 µM | > 42 µM | > 100 µM |
| O=C(c1ccccc1)c1nc2ccc(C(F)(F)F)cc2[n+]([O-])c1C(F)(F)F | 19 µM | 52.5 µM | 71.9 µM | > 100 µM | 47.5 µM | > 100 µM | 31.3 µM | > 100 µM | 34.6 µM | > 100 µM | 34.5 µM | > 100 µM | 31.8 µM | > 100 µM | 24.2 µM | > 100 µM | 43.8 µM | > 100 µM | 18.2 µM | > 100 µM |
| COc1ccc(-c2ccc(/C=N/n3c(C)nn(CN4CCN(C)CC4)c3=S)o2)c([N+](=O)[O-])c1 | 14.9 µM | 33.3 µM | > 100 µM | > 100 µM | > 100 µM | > 100 µM | 21.7 µM | 57.8 µM | 62.6 µM | > 100 µM | 42.4 µM | > 100 µM | 30.2 µM | > 100 µM | 16.2 µM | 38.1 µM | 14.2 µM | 31 µM | 16.2 µM | 42.4 µM |
| Nc1nc(N)c2nc(CNc3ccc(C(=O)NC(CCCNC(=O)c4ccccc4C(=O)O)C(=O)O)cc3)cnc2n1 (configuration not stated) | 0.00049 µM | > 100 µM |  | > 100 µM | 0.000866 µM | > 100 µM | 0.00028 µM | > 100 µM | 0.00196 µM | > 100 µM | 0.0226 µM | > 100 µM |  | > 100 µM | < 0.0157 µM and 0.0676 µM | > 100 µM |  | > 100 µM | < 0.0242 µM and 0.000381 µM | > 100 µM |
| COc1ccccc1S(=O)(=O)Nc1ccc2c(c1)CN(C)C(=O)N2 | 1.18 µM and 2.7 µM | > 100 µM | 67.4 µM and 33.1 µM | > 100 µM | 20.3 µM and 14.5 µM | > 100 µM | 4.6 µM and 4.38 µM | > 100 µM | 9.5 µM and 11.7 µM | > 100 µM | 3.3 µM and 4.08 µM | > 100 µM | 4.72 µM and 5.16 µM | 28.3 µM and > 60.2 µM | 4.71 µM | > 100 µM | 4.24 µM and 2.63 µM | > 100 µM | 8.64 µM and 5.18 µM | > 100 µM |
| Cc1c(NC(=O)OC[C@@H]2COCCN2)cn2ncnc(Nc3ccc4c(cnn4Cc4cccc(F)c4)c3)c12 | 7.76 µM and 17.5 µM | > 10 µM and 37 µM | 9.5 µM and 4.26 µM | > 10 µM and 20.6 µM | > 10 µM and 10.5 µM | > 10 µM and 24.6 µM | 7.82 µM and 5.22 µM | > 10 µM and 18.7 µM | > 10 µM and 8.82 µM | > 10 µM and 21.4 µM | 9.45 µM and 4.41 µM | > 10 µM and 16.3 µM | 2.89 µM and 4.15 µM | > 10 µM and 15.3 µM | > 10 µM and 6.66 µM | > 10 µM and 21.5 µM | > 10 µM and 9.97 µM | > 10 µM and 23 µM | 3.91 µM and 4.53 µM | > 10 µM and 17.1 µM |
| C=C1C(=O)O[C@H]2[C@H]1CC/C(COC(=O)c1ccc(C#N)cc1)=C\CC[C@@]1(C)O[C@@H]21 | 1.67 µM | 7.47 µM | 1.5 µM | 2.83 µM | 1.27 µM | 2.88 µM | 1.42 µM | 2.77 µM | 3.06 µM | 9.51 µM | 1.69 µM | 3.64 µM | 1.03 µM | 2.32 µM | 1.36 µM | 2.75 µM | 1.96 µM | 4.53 µM | 1.94 µM | 13 µM |
